Measurements published in patent US9636307B2, “Oral pharmaceutical composition comprising taste-masked N-acetylcysteine” (HERMES ARZNEIMITTEL GMBH, priority 2013, dated 2017).

What was measured:
[1] = Stability testing of N-acetylcysteine by headspace gas chromatography; type: physicochemical
[2] = Decomposition during processing of the material (sulphurous smell); type: physicochemical; settings: between about 40 and 48° C. compared to working at above 50° C.; evident by reduced sulphurous smell

CC(=O)N[C@@H](CS)C(=O)O [N-acetylcysteine, N-acetyl-L-cysteine]
sulphur species detectable by headspace gas chromatography ([1]; sample subjected to 60° C. for 2 hours): two sulphurous species, acetyl mercaptane and s-ethyl ethanthioate, were detected | sulphur species detectable by headspace gas chromatography ([1]; sample treated at 40° C. for 2 hours): no sulphur species are detectable | decomposition of N-acetylcysteine [2]: notably suppressed
